{
  "source": "patent US20100317565A1",
  "about": "“Novel Peptides and Their Use for the Treatment of Edema” (Rentschler Beteiligungs GmbH, priority 2007, published 2010)",
  "key": {"[1]": {"system": "polarized Calu-3 cell monolayers", "test": "Transepithelial electrical resistance (TEER) assay on polarized Calu-3 cell monolayers", "assay_type": "cell-based, human", "settings": "peptide 250 μM added to apical and basolateral compartment; peak TEER value as percent of Tip peptide (=100%)"}, "in situ mouse lung": {"system": "in situ mouse lung", "settings": "cited from earlier work"}, "rat lung": {"system": "rat lung", "settings": "ex vivo and in vivo rat lung model; cited from earlier work"}, "[2]": {"system": "microvascular endothelial cells", "settings": "cited from earlier work"}, "[3]": {"system": "isolated blood perfused flooded rat lung (E. coli-LPS induced lung edema)", "test": "Endotoxin induced lung injury in the isolated blood perfused flooded rat lung model", "assay_type": "in vivo, male Spraque-Dawley rats", "settings": "P5 3 mg or P9 10 mg in 1 ml saline i.t.; for Attenuation of LPS-induced total lung weight gain / lung edema production: LPS 3 mg/kg i.t., 18 h, 2-h ex-vivo reperfusion; for Inspiratory resistive work / Static and dynamic lung compliance: LPS-treated lungs; for Inspiratory resistive work / Static and dynamic lung compliance / Effect on lung wet/dry weight ratio: 2-h reperfusion; for Effect on lung wet/dry weight ratio: versus LPS+saline treated lungs", "description": "In the “Endotoxin induced lung injury in the isolated blood perfused flooded rat lung model”, which is an ex vivo permeability lung edema model, E. coli-LPS is instilled intratracheally and after […] the lung is isolated and placed in an artificial thorax chamber. Then, perfusion occurs with autolo-gous blood. After an one hour stabilisation period, the test compound (in 1 ml saline) is instilled intratra-cheally. Lung parameters are measured over 2 hours. The main read-outs are lung-weight and parameters of lung mechanics and hemodynamics.\nIn the “Endotoxin induced lung injury in the isolated blood perfused flooded rat lung model”, which is an ex vivo permeability lung edema model, E. coli-LPS is instilled intratracheally and after […] the lung is isolated and placed in an artificial thorax chamber. Then, perfusion occurs with autologous blood. After an one hour stabilisation period, the test compound (in 1 ml saline) is instilled intratracheally. Lung parameters are measured over 2 hours. The primary readout parameters of this […] model are wet weight of lung and heart and P/V curves which are parameters of lung mechanics and hemodynamics.\nIn this ex vivo lung edema model, E. coli-LPS (3 mg/kg) was instilled intratracheally into male Spraque-Dawley rats. After 18 h the lung was isolated and placed in an artificial thorax chamber. Then, perfusion occurred with autologous blood. After one hour stabilisation period, the test compound (in 1 ml saline) was instilled intratracheally. Lung parameters were measured over 2 h. The main read-outs were lung-weight and parameters of lung mechanics and hemodynamics. • Number of rats: n=7-8 per group • Data are means±SEM • Treatment groups:\n? P9 • Perfusion conditions: • imposed pulmonary artery perfusion pressure: 20 mmHg • imposed left atrial pressure: 10 mmHg • resulting pulmonary blood flow: ˜6-9 ml/min • resulting pulmonary microvascular pressure: ˜14.5 mmHg • imposed tidal volume: 7 ml/kg; respiratory rate: 30 bpm • imposed positive end-expiratory airway pressure: 3.0 cmH2O-arterial pH: 7.5 • adjusted hematocrit: 28% (autologous blood)"}},
  "note": "Entries after “also recorded” stand apart in the source; their conditions may differ. Bridge positions count the residues as written; N and C are the ends. Ends that are not written are not given here.",
  "data": [
    {"substance": "53 (CGSPEGGEGGGGGSPEGGEGGGGGSPEGGEGC; anti-edema peptide) [compound 53]", "values": [
      {"measurement": "Activity in TEER assay (c = 250 μM) (% of Tip activity)", "setting": "[1]", "value": "131.7 % of Tip activity"}
    ]},
    {"substance": "11 (TPEGAEGGGGGTPEGAEGGGGGTPEGAE; anti-edema peptide) [compound 11]", "values": [
      {"measurement": "Activity in TEER assay (c = 250 μM) (% of Tip activity)", "setting": "[1]", "value": "80.0 % of Tip activity"}
    ]},
    {"substance": "CGQRETPEGAEAKPWYC [SEQ ID NO: 61]", "values": [
      {"measurement": "Alveolar fluid reabsorption", "setting": "in situ mouse lung", "value": "up-regulated"},
      {"measurement": "Alveolar fluid reabsorption", "setting": "rat lung", "value": "up-regulated"},
      {"measurement": "Membrane conductance", "setting": "[2]", "value": "increased"}
    ]},
    {"substance": "46 (CGQRETPDGAEAKPWYC; anti-edema peptide) [compound 46]", "values": [
      {"measurement": "Activity in TEER assay (c = 250 μM) (% of Tip activity)", "setting": "[1]", "value": "130.4 % of Tip activity"}
    ]},
    {"substance": "SPEGGEGGGGGSPEGGEGGGGGSPEGGE (anti-edema peptide) [SEQ ID NO: 52]", "values": [
      {"measurement": "Attenuation of LPS-induced total lung weight gain / lung edema production", "setting": "[3]; listed as P9", "value": "attenuating the LPS-induced total lung weight gain"},
      {"measurement": "Inspiratory resistive work", "setting": "[3]", "value": "especially reduces"},
      {"measurement": "Static and dynamic lung compliance", "setting": "[3]", "value": "markedly ameliorates"},
      {"measurement": "Effect on lung wet/dry weight ratio", "setting": "[3]", "value": "less pronounced"}
    ]},
    {"substance": "40 (CGQRESPDGADAKPWYC; anti-edema peptide) [compound 40]", "values": [
      {"measurement": "Activity in TEER assay (c = 250 μM) (% of Tip activity)", "setting": "[1]", "value": "127.7 % of Tip activity"}
    ]},
    {"substance": "55 (CGSPEGGDGGGGGSPEGGDGGGGGSPEGGDGC; anti-edema peptide) [compound 55]", "values": [
      {"measurement": "Activity in TEER assay (c = 250 μM) (% of Tip activity)", "setting": "[1]", "value": "146.0 % of Tip activity"}
    ]},
    {"substance": "45 (CGQRETPDGADAKPWYC; anti-edema peptide) [compound 45]", "values": [
      {"measurement": "Activity in TEER assay (c = 250 μM) (% of Tip activity)", "setting": "[1]", "value": "172.4 % of Tip activity"}
    ]},
    {"substance": "CGSPEGGDSPEGGDSPEGGDGC (anti-edema peptide) [Peptide P5]", "values": [
      {"measurement": "Attenuation of LPS-induced total lung weight gain / lung edema production", "setting": "[3]", "value": "significantly attenuate; also recorded: attenuating the LPS-induced total lung weight gain"},
      {"measurement": "Inspiratory resistive work", "setting": "[3]", "value": "especially reduces"},
      {"measurement": "Static and dynamic lung compliance", "setting": "[3]", "value": "markedly ameliorates"},
      {"measurement": "Effect on lung wet/dry weight ratio", "setting": "[3]", "value": "statistically significantly different from LPS+saline treated lungs"}
    ]},
    {"substance": "54 (SPEGGDGGGGGSPEGGDGGGGGSPEGGD; anti-edema peptide) [compound 54]", "values": [
      {"measurement": "Activity in TEER assay (c = 250 μM) (% of Tip activity)", "setting": "[1]", "value": "90.7 % of Tip activity"}
    ]},
    {"substance": "51 (CGTPEGAETPEGAETPEGAETPEGAETPEGAEGC; anti-edema peptide) [compound 51]", "values": [
      {"measurement": "Activity in TEER assay (c = 250 μM) (% of Tip activity)", "setting": "[1]", "value": "146.6 % of Tip activity"}
    ]},
    {"substance": "2 (CGTKPIELGPDEPKAVC; disulfide 1-17 (inferred)) [compound 2]", "values": [
      {"measurement": "Activity in TEER assay (c = 250 μM) (% of Tip activity)", "setting": "[1]", "value": "130.1 % of Tip activity"}
    ]},
    {"substance": "43 (CGQRETPEGADAKPWYC; anti-edema peptide) [compound 43]", "values": [
      {"measurement": "Activity in TEER assay (c = 250 μM) (% of Tip activity)", "setting": "[1]", "value": "139.8 % of Tip activity"}
    ]},
    {"substance": "49 (CGTPEGAETPEGAETPEGAEGC; anti-edema peptide) [compound 49]", "values": [
      {"measurement": "Activity in TEER assay (c = 250 μM) (% of Tip activity)", "setting": "[1]", "value": "139.9 % of Tip activity"}
    ]},
    {"substance": "39 (CGQRESPDGAEAKPWYC; anti-edema peptide) [compound 39]", "values": [
      {"measurement": "Activity in TEER assay (c = 250 μM) (% of Tip activity)", "setting": "[1]", "value": "88.8 % of Tip activity"}
    ]},
    {"substance": "5 (TPEGAETPEGAETPEGAETPEGAETPEGAE; anti-edema peptide) [compound 5]", "values": [
      {"measurement": "Activity in TEER assay (c = 250 μM) (% of Tip activity)", "setting": "[1]", "value": "93.0 % of Tip activity"}
    ]},
    {"substance": "36 (CGQRESPEGADAKPWYC; anti-edema peptide) [compound 36]", "values": [
      {"measurement": "Activity in TEER assay (c = 250 μM) (% of Tip activity)", "setting": "[1]", "value": "119.4 % of Tip activity"}
    ]},
    {"substance": "52 (SPEGGEGGGGGSPEGGEGGGGGSPEGGE; anti-edema peptide) [compound 52]", "values": [
      {"measurement": "Activity in TEER assay (c = 250 μM) (% of Tip activity)", "setting": "[1]", "value": "87.1 % of Tip activity"}
    ]},
    {"substance": "42 (CGQRESPDGGDAKPWYC; anti-edema peptide) [compound 42]", "values": [
      {"measurement": "Activity in TEER assay (c = 250 μM) (% of Tip activity)", "setting": "[1]", "value": "123.6 % of Tip activity"}
    ]},
    {"substance": "35 (CGQRESPEGAEAKPWYC; anti-edema peptide) [compound 35]", "values": [
      {"measurement": "Activity in TEER assay (c = 250 μM) (% of Tip activity)", "setting": "[1]", "value": "120.9 % of Tip activity"}
    ]},
    {"substance": "20 (GGSPSQRETPEGAEAKPWYGGSPSQRETPEGAEAKPWYGGSPSQRETPEGAEAKPWY; anti-edema peptide) [compound 20]", "values": [
      {"measurement": "Activity in TEER assay (c = 250 μM) (% of Tip activity)", "setting": "[1]", "value": "539.0 % of Tip activity"}
    ]},
    {"substance": "50 (CGGGGGTPEGAEGGGGGTPEGAEGGGGGTPEGAEGC; anti-edema peptide) [compound 50]", "values": [
      {"measurement": "Activity in TEER assay (c = 250 μM) (% of Tip activity)", "setting": "[1]", "value": "156.5 % of Tip activity"}
    ]}
  ]
}
